Experimental data taken from patent publication US20240165109A1, “Methods of Treatment with Selective CB2 Receptor Agonists” (Arena Pharmaceuticals, Inc., priority 2021, published 2024).

What was measured:
osteoarthritis pain = osteoarthritis pain model; format: in vivo
Source text: (§1) Methods of treating pain, including visceral pain with APD371 are described in US patent application publication no. 2020-0078358, which is herein incorporated by reference in its entirety.

rat CB2 receptors = biological target: T1, rat CB2 receptors (Rattus norvegicus, UniProt Q9QZN9); experiment: CB2 receptor internalization efficacy relative to CP55,940 (rat); format: cell-based
T1 sequence (Q9QZN9 1-360): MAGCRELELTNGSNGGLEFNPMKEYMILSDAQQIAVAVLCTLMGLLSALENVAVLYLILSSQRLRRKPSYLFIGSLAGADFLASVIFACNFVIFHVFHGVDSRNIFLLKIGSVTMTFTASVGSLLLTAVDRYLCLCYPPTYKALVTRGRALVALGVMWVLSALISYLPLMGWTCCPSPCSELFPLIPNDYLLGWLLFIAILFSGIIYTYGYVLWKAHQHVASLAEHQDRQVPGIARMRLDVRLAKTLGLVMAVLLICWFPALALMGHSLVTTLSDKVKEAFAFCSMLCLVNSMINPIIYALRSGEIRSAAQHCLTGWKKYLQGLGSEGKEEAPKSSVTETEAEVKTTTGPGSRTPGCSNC
Source text: as §1

[1] = tested on: subjects with irritable bowel syndrome experiencing abdominal pain; conditions: 50 mg tid, week 12, subgroup with baseline AAPS >= 6.5 (moderate to severe pain)
human CB2 receptor [2] = biological target: T2, human CB2 receptor (Homo sapiens, UniProt P34972); experiment: selectivity for human CB2 receptor versus human CB1 receptor; conditions: human CB2 vs human CB1
Source text: as §1

human CB2 receptor [3] = biological target: T2, human CB2 receptor; experiment: CB2 receptor internalization efficacy relative to CP55,940 (human); format: cell-based
Source text: as §1

[4] = tested on: paclitaxel-induced neuropathic pain; experiment: paclitaxel-induced neuropathic pain model; conditions: in vivo
Source text: as §1

[5] = tested on: painful peripheral diabetic neuropathy; experiment: painful peripheral diabetic neuropathy model; conditions: in vivo
Source text: as §1

T2 sequence (P34972 whole entry): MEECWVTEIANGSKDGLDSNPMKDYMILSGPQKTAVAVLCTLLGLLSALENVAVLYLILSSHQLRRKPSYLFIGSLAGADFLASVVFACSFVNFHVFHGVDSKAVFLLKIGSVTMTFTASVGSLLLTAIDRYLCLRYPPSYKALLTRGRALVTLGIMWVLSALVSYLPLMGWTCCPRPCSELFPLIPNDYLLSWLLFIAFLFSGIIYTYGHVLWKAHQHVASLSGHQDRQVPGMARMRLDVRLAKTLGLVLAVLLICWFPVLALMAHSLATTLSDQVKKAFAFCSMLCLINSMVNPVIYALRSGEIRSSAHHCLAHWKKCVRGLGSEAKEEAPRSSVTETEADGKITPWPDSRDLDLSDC

## CC(C)(C)[C@@H](CO)NC(=O)c1nn(-c2c[n+]([O-])ccn2)c2c1C[C@@H]1C[C@H]21 [Compound A, (1aS,5aS)-2-(4-Oxy-pyrazin-2-yl)-1a,2,5,5a-tetrahydro-1H-2,3-diaza-cyclopropa[a]pentalene-4-carboxylic acid ((S)-1-Hydroxymethyl-2,2-dimethyl-propyl)-amide]
Osteoarthritis pain; in vivo
  efficacy in model of osteoarthritis pain: sustained efficacy
Osteoarthritis pain; osteoarthritis pain model, despite rapidly declining plasma concentrations
  duration of in vivo efficacy following dosing: maintained in vivo efficacy for four hours following dosing
Rat CB2 receptors
  receptor internalization efficacy relative to CP55,940: 105%
[1]
  reduction in AAPS from baseline: 3.93 points
[1]; p=0.01
  reduction in AAPS compared to placebo: 1.64 points
Human CB2 receptor [2]
  selectivity for the human CB2 receptor versus the human CB1 receptor: > 1,000 fold
Human CB2 receptor [3]
  receptor internalization efficacy relative to CP55,940: 96%
[4]
  efficacy in model of paclitaxel-induced neuropathic pain: sustained efficacy
[5]
  efficacy in model of painful peripheral diabetic neuropathy: sustained efficacy
